US11053221B2, “Substituted pyrimidines for inhibiting embryonic leucine zipper kinase activity” (Arrien Pharmaceuticals LLC, priority 2018, dated 2021)

Assays:
MELK = molecular target: T1, MELK (Homo sapiens, UniProt Q14680); experiment: HotSpot kinase assay, MELK; assay type: biochemical; conditions: HotSpot radiometric 33P ATP assay, 25° C., 120 min
T1 construct: purchased Reaction Biology Corporation
Procedure: (§1) In vitro profiling of the MELK, MELK (T460M) kinase panel was performed at Reaction Biology Corporation using the “HotSpot” assay platform. In vitro profiling of the FLT3, FLT3 mutant forms; FLT3 (D835Y), FLT3 (F594R595insR), FLT3 (F594R595insREY), FLT3 (ITD), FLT3 (ITD)-NPOS, FLT3 (ITD)-W51 and FLT3 (R595_E596insEY) kinase panel is performed in the same manner.
(§2) Briefly, specific kinase/substrate pairs along with required cofactors were prepared in reaction buffer; 20 mM Hepes (pH 7.5), 10 mM MgCl2, 1 mM EGTA, 0.02% Brij35, 0.02 mg/mL BSA, 0.1 mM Na3VO4, 2 mM DTT, 1% DMSO. Compounds were delivered into the reaction, followed ˜20 min later by addition of a mixture of ATP (Sigma) and ^33P ATP (PerkinElmer) to a final concentration of […]. Reactions were carried out at 25° C. for 120 min, followed by spotting of the reactions onto P81 ion exchange filter paper (Whatman). Unbound phosphate was removed by extensive washing of filters in 0.75% phosphoric acid. […] IC50 values and curve fits were obtained using Prism (GraphPad Software).

FLT3 = molecular target: T2, FLT3 (Homo sapiens, UniProt P36888); experiment: HotSpot kinase assay, FLT3; assay type: biochemical; conditions: HotSpot radiometric 33P ATP assay, 25° C., 120 min
T2 construct: purchased Reaction Biology Corporation
T2 sequence (P36888 27-993): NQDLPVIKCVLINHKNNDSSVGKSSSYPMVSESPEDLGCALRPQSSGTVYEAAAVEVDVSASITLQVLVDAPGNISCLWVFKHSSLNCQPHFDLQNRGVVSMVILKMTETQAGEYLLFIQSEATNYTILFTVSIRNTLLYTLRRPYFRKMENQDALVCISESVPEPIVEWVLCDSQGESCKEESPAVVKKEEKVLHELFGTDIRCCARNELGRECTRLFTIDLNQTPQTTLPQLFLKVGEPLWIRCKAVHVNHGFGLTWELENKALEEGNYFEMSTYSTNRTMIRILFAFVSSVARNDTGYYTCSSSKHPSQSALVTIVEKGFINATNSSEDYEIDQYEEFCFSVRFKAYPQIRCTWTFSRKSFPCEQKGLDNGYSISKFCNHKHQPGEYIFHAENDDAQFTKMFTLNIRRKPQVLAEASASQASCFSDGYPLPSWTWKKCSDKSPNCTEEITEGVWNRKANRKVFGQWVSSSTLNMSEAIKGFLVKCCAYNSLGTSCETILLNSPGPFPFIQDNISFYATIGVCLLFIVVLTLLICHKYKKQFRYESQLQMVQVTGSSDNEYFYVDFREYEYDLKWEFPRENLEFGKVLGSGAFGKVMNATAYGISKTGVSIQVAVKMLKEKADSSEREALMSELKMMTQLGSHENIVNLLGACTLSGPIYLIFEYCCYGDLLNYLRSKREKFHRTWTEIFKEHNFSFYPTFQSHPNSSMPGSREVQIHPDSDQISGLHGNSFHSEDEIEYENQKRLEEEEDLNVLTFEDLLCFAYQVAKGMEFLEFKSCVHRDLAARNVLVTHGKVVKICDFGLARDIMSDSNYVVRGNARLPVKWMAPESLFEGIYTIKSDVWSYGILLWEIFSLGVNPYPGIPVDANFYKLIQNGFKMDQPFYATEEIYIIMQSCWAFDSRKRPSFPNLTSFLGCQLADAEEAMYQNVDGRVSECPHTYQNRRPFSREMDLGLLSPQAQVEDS
Procedure: as §1, §2

T1 sequence (Q14680 whole entry): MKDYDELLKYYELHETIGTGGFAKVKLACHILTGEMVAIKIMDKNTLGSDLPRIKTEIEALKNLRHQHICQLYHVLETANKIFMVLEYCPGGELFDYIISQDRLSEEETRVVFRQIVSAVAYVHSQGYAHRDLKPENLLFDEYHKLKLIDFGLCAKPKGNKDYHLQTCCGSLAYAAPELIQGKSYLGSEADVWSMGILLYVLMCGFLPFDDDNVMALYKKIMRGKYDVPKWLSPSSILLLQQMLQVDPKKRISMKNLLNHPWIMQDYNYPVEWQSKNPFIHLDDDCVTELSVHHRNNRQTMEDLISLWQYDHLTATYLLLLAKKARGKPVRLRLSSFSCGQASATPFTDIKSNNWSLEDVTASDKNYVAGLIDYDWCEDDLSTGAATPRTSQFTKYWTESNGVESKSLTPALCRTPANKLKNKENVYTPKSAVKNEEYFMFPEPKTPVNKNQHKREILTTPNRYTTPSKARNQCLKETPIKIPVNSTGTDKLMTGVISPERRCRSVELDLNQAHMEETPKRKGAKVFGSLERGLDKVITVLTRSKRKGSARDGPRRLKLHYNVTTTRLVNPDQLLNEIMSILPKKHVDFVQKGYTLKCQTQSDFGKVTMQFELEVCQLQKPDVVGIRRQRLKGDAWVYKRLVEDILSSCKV

Row | SMILES | IC50 (MELK) [nM] | IC50 (FLT3) [nM]
1 | Fc1ccccc1-n1cc(-c2ncnc(Cl)c2OCC2CCNCC2)cn1 [Compound I-27, 4-chloro-6-(1-(2-fluorophenyl)-1H-pyrazol-4-yl)-5-(piperidin-4-ylmethoxy)pyrim-idine] | 200 to 1000 | < 200
2 | c1ccc(-n2cc(-c3ncncc3OCC3CCNCC3)cn2)cc1 [Compound I-28, 4-(1-phenyl-1H-pyrazol-4-yl)-5-(piperidin-4-ylmethoxy)pyrim-idine] | 200 to 1000 | 200 to 1000
3 | Fc1cccc(F)c1-n1cc(-c2ncnc(Cl)c2OCC2CCNCC2)cn1 [Compound I-29, 4-chloro-6-(1-(2,6-difluorophenyl)-1H-pyrazol-4-yl)-5-(piperidin-4-ylmethoxy)pyrim-idine] | > 1000 | 200 to 1000
4 | Fc1cccc(F)c1-n1cc(-c2ncncc2OCC2CCNCC2)cn1 [Compound I-30, 4-(1-(2,6-difluorophenyl)-1H-pyrazol-4-yl)-5-(piperidin-4-ylmethoxy)pyrim-idine] | 200 to 1000 | 200 to 1000
5 | OC1CCC(COc2cncnc2-c2cnn(-c3ccccc3F)c2)CC1 (stereo not drawn) [Compound I-31, 4-(((4-(1-(2-fluorophenyl)-1H-pyrazol-4-yl)pyrimidin-5-yl)oxy)methyl)cyclo-hexan-1-ol] | > 1000 | 200 to 1000
6 | CCS(=O)(=O)c1ccc(-n2cc(-c3ncncc3OC[C@H]3CC[C@@H](N)CC3)cn2)c(F)c1 [Compound I-35, (1s,4s)-4-(((4-(1-(4-(ethylsulfonyl)-2-fluorophenyl)-1H-pyrazol-4-yl)pyrimidin-5-yl)oxy)methyl)cyclo-hexan-1-amine] | 200 to 1000 | 200 to 1000

The next lines start with the values.

Row | IC50 (MELK) [nM] | IC50 (FLT3) [nM] | SMILES
7 | < 200 | < 200 | CN1CCN(c2ccc(-n3cc(-c4ncncc4OC[C@H]4CC[C@@H](N)CC4)cn3)cc2)CC1 [Compound I-32, (1s,4s)-4-(((4-(1-(4-(4-methylpiperazin-1-yl)phenyl)-1H-pyrazol-4-yl)pyrimidin-5-yl)oxy)methyl)cyclo-hexan-1-amine]
8 | < 200 | < 200 | N[C@H]1CC[C@@H](COc2cncnc2-c2cnn(-c3ccc(N4CCOCC4)cc3)c2)CC1 [Compound I-33, (1s,4s)-4-(((4-(1-(4-morpholinophenyl)-1H-pyrazol-4-yl)pyrimidin-5-yl)oxy)methyl)cyclo-hexan-1-amine]
9 | 200 to 1000 | < 200 | CCS(=O)(=O)c1ccc(-n2cc(-c3ncncc3OC[C@H]3CC[C@@H](N)CC3)cn2)cc1 [Compound I-34, (1s,4s)-4-(((4-(1-(4-(ethylsulfonyl)phenyl)-1H-pyrazol-4-yl)pyrimidin-5-yl)oxy)methyl)cyclo-hexan-1-amine]
